Measured values taken from PMC10977428 (Journal of Parkinson's Disease, 2024).
Where two headings read alike, the source gives them in different places.

What was measured:
[1] = 7-day multiple ascending dose; type: in vivo, human; conditions: for accumulation of exposures at steady-state: once daily 7 days; for AUC0 - ∞/D / Cmax/D: HV N = 6, mean (SD)
[2] = system: rodent and non-human primates; conditions: daily dosing between 13 and 39 weeks duration; cited from earlier work
[3] = 7-day MAD plasma pharmacokinetics, participants with PD; type: in vivo; conditions: human, oral
Single ascending dose = type: in vivo, human; conditions: for dose linearity of single dose PK: Cmax and AUC0 - inf; for AUC0 - ∞/D / Cmax/D / tlag: fed, older healthy adults N = 6, mean (SD)
[4] = system: models of inherited or sporadic Parkinson’s-like disease; conditions: once daily oral administration; cited from earlier work
c-Abl activation = conditions: once-daily oral administration; cited from earlier work
[5] = type: in vivo, human; conditions: for concentration at 6 days: human, cerebrospinal fluid, oral
[6] = system: participants with mild-to-moderate PD; assay: Functional assessments of motor and non-motor features of PD; type: in vivo, human; conditions: baseline to Day 7
[7] = system: older healthy adults or participants with PD; assay: Safety and tolerability; type: in vivo, human
PD features = conditions: double blind clinical studies; cited from earlier work
[8] = DAY 1 of 7-day dosing, 12.5 mg once daily, plasma
[9] = DAY 1 of 7-day dosing, 25.0 mg once daily, plasma
[10] = DAY 1 of 7-day dosing, 200 mg once daily, plasma
[11] = DAY 7 of 7-day dosing, 25.0 mg once daily, plasma
[12] = DAY 7 of 7-day dosing, 200.0 mg once daily, plasma
[13] = SAD 12.5 mg single oral dose, plasma
[14] = SAD 25.0 mg single oral dose, plasma
[15] = SAD 37.5 mg single oral dose, plasma
[16] = SAD 75.0 mg single oral dose, plasma
[17] = SAD 100 mg single oral dose, plasma
[18] = SAD 125 mg single oral dose, plasma
[19] = SAD 175 mg single oral dose, plasma
[20] = SAD 250 mg single oral dose, plasma
[21] = SAD 325 mg single oral dose, plasma

## Cc1ccc(NC(=O)c2ccc(CN3CCN(C)CC3)cc2)cc1Nc1nccc(-c2cncc(-c3oncc3C)c2)n1 [Risvodetinib]
[1]; 100 mg or 200 mg, Day 7 comparable to Day 1
  accumulation of exposures at steady-state: little or no accumulation
[1]; [8]
  AUC0 - ∞/D: 706 (424) h*ng/mL/mg
  Cmax/D: 43.0 (23.1) ng/mL/mg
[1]; [9]
  AUC0 - ∞/D: 780 (305) h*ng/mL/mg
  Cmax/D: 41.5 (22.3) ng/mL/mg
[1]; [10]
  AUC0 - ∞/D: 759 (263) h*ng/mL/mg
  Cmax/D: 32.5 (6.4) ng/mL/mg
[1]; [11]
  AUC0 - ∞/D: 1020 (370) h*ng/mL/mg
  Cmax/D: 70.9 (32.3) ng/mL/mg
[1]; [12]
  AUC0 - ∞/D: 486 (116) h*ng/mL/mg
  Cmax/D: 29.8 (5.6) ng/mL/mg
[1]; doses > 50 mg once daily (higher doses)
  time to steady-state: within one day
[1]; doses less than or equal to 50 mg
  accumulation of exposures at steady-state: approximately two-fold
[1]; doses ≤50 mg once daily
  time to steady-state: ≤ 5 days
[1]; human, plasma, oral, 12.5 mg
  AUC(0-inf): 8830 ng·h/mL
[1]; human, plasma, oral, 25 mg
  AUC(0-inf): 19500 ng·h/mL
[1]; human, plasma, oral, 200 mg
  AUC(0-inf): 152000 ng·h/mL
[1]; human, plasma, oral, half-life, overall statement in discussion
  half-life: ~24 h
[2]
  histopathology in the pancreas: no histopathology in the pancreas was observed
[3]; 50 mg
  AUC(0-inf): 24500 ng·h/mL
[3]; 100 mg
  AUC(0-inf): 68700 ng·h/mL
Single ascending dose
  dose linearity of single dose PK: approximately linear between 12.5 mg and 175 mg
Single ascending dose; listed as risvodetinib (IkT-148009)
  dose linearity of single dose PK: approximately linear between 12.5 mg and 200 mg
Single ascending dose; [13]
  AUC0 - ∞/D: 758 (345) h*ng/mL/mg
  Cmax/D: 35.8 (26.6) ng/mL/mg
  tlag: 1.09 (1.48) h
Single ascending dose; [14]
  AUC0 - ∞/D: 936 (314) h*ng/mL/mg
  Cmax/D: 37.8 (13.9) ng/mL/mg
  tlag: 0.614 (0.367) h
Single ascending dose; [15]
  AUC0 - ∞/D: 823 (776) h*ng/mL/mg
  Cmax/D: 36.0 (21.2) ng/mL/mg
  tlag: 0.642 (0.393) h
Single ascending dose; [16]
  AUC0 - ∞/D: 802 (342) h*ng/mL/mg
  Cmax/D: 36.6 (13.6) ng/mL/mg
  tlag: 0.342 (0.143) h
Single ascending dose; [17]
  AUC0 - ∞/D: 1150 (285) h*ng/mL/mg
  Cmax/D: 53.2 (12.8) ng/mL/mg
  tlag: 0.414 (0.350) h
Single ascending dose; [18]
  AUC0 - ∞/D: 879 (370) h*ng/mL/mg
  Cmax/D: 42.3 (10.1) ng/mL/mg
  tlag: 0.306 (0.284) h
Single ascending dose; [19]
  AUC0 - ∞/D: 982 (359) h*ng/mL/mg
  Cmax/D: 35.0 (13.7) ng/mL/mg
  tlag: 0.0944 (0.146) h
Single ascending dose; [20]
  AUC0 - ∞/D: 858 (417) h*ng/mL/mg
  Cmax/D: 28.9 (6.55) ng/mL/mg
  tlag: 0.547 (0.507) h
Single ascending dose; [21]
  AUC0 - ∞/D: 749 (385) h*ng/mL/mg
  Cmax/D: 22.5 (9.71) ng/mL/mg
  tlag: 0.186 (0.250) h
Single ascending dose; human, plasma, oral
  half-life: 24 to 39 h
[4]
  effect in models of inherited or sporadic Parkinson’s-like disease: therapeutically effective
c-Abl activation
  effect in the MPTP acute toxicity model: blocked disease initiation and progression
[5]; 25 mg
  concentration at 6 days: 4.51 ng/mL
[5]; 50 mg
  concentration at 6 days: 3.07 ng/mL
[5]; 100 mg
  concentration at 6 days: 8.42 ng/mL
[5]; pre-dose on the last dosing day of a 7-day dosing study, older healthy adults and PD participants
  detection in cerebrospinal fluid: detected
[6]; 50 mg once daily 7 days
  increase of mean score for MDS-UPDRS Part III: 6.2 (±9.50) points
[6]; 100 mg once daily 7 days
  increase of mean score for MDS-UPDRS Part III: 7.4 (±14.1) points
[7]; 50 mg, 7-day, 1x/day, PD patients
  Severity of treatment-related adverse event: Dermatitis: Mild
[7]; 75 mg, Single Dose, healthy subjects
  Severity of treatment-related adverse event: Palpitations: Mild
[7]; 100 mg, 7-day, 1x/day, PD patients
  Severity of treatment-related adverse event: Constipation: Mild
[7]; 200 mg, 7-day, 1x/day, healthy subjects
  Severity of treatment-related adverse event: Elevated Lipase: Mild
[7]; 325 mg, Single Dose, healthy subjects
  Severity of treatment-related adverse event: Diarrhea: Mild
[7]; 94 healthy subjects and 14 participants with PD
  deaths and serious adverse events: no deaths, no serious adverse events
[7]; among all 36 recorded adverse events, SAD, MAD and MAD-PD, all mild
  adverse events deemed possibly or probably related to the active drug: 11
[7]; any dose or dose duration
  QTcF prolongation: No participants displayed evidence of QTcF prolongation
[7]; participants with PD
  orthostatic hypotension, heart rate, heart rhythm, blood pressure: did not exacerbate pre-existing orthostatic hypotension

## Cc1cn(-c2cc(NC(=O)c3ccc(C)c(Nc4nccc(-c5cccnc5)n4)c3)cc(C(F)(F)F)c2)cn1 [nilotinib]
PD features
  improvement of PD features: failure
